Read-outs that look alike come from different tables or passages of the source. Non-standard residues stand in square brackets, D forms with d. Residues, ends and D or L forms follow the SMILES beside them. *: point of attachment. Sta = CC(C)C[C@H](N)[C@@H](O)CC(=O)O; Isovaleryl = CC(C)CC(=O)*
What was measured:
[1] = test system: medaka EP-2 protease; assay: Inhibitor assay, enzyme activity measured using GD4K-βNA as a substrate; assay type: biochemical, medaka (Oryzias latipes)
[2] = test system: medaka EP-1 protease; assay: as above; assay type: biochemical, medaka (Oryzias latipes)
[3] = target: medaka EP-2 enteropeptidase serine protease domain, wild type (EP-2, SEQ ID NO: 72) (Oryzias latipes, UniProt A4UWM6); assay: Inhibitor assay, EP-2 protease activity on GD4K-βNA; assay type: biochemical, Japanese Medaka (Oryzias latipes); details: pH 7.4
[4] = target: T1, medaka EP-1 enteropeptidase serine protease domain, wild type, SEQ ID NO: 2 (Oryzias latipes, UniProt A4UWM5); assay: Inhibitor assay, EP-1 protease activity on GD4K-βNA; assay type: biochemical, Japanese Medaka (Oryzias latipes); details: pH 7.4
T1 sequence (A4UWM5 795-1036): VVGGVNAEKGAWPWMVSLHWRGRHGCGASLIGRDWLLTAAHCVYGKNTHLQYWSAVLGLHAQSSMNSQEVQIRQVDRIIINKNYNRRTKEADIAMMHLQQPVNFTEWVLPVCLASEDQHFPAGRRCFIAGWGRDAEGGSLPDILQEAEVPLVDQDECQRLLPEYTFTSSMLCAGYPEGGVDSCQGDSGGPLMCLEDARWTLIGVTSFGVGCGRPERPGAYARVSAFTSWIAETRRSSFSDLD

[5] = inhibitor 0.01 mg/ml, GD4K-βNA substrate, 10 min preincubation
[6] = inhibitor 1.0 mM, GD4K-βNA substrate, 10 min preincubation
[7] = inhibitor 0.1 mM, GD4K-βNA substrate, 10 min preincubation
[8] = 0.2 mM inhibitor, GD4K-βNA substrate, 10 min preincubation

Chain of medaka EP-2 enteropeptidase serine protease domain, wild type (EP-2, SEQ ID NO: 72) (A4UWM6 802-1043): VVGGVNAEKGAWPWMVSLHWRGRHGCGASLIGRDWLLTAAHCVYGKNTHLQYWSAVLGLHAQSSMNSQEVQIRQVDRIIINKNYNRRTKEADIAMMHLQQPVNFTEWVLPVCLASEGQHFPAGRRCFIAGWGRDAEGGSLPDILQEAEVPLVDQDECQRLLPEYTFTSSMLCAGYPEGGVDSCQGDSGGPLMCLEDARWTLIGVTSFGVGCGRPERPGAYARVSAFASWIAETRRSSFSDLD

Aprotinin
Inhibition (%) EP-2 [1, 5]: 5%
Inhibition (%) EP-1 [2, 5]: 0%

N=C(N)c1ccccc1 [Benzamidine]
Inhibition (%) EP-2 [1, 6]: 78%
Inhibition (%) EP-1 [2, 6]: 79%

CC(C)CC(=O)N[C@H](C(=O)N[C@H](C(=O)N[C@@H](CC(C)C)[C@@H](O)CC(=O)N[C@@H](C)C(=O)N[C@@H](CC(C)C)[C@@H](O)CC(=O)O)C(C)C)C(C)C [Pepstatin] (Isovaleryl-VV[Sta]A[Sta]-OH)
Inhibition (%) EP-2 [1, 7]: 3%
Inhibition (%) EP-1 [2, 7]: 0%

CC(C)C[C@H](NC(=O)[C@@H](NC(=O)N[C@@H](Cc1ccccc1)C(=O)O)[C@@H]1CCN=C(N)N1)C(=O)N[C@H](C=O)Cc1ccccc1 [Chymostatin]
Inhibition (%) EP-2 [1]: 0%
Inhibition (%) EP-1 [2]: 0%

CC(=O)N[C@@H](CC(C)C)C(=O)N[C@@H](CC(C)C)C(=O)N[C@H](C=O)CCCNC(=N)N [Leupeptin]
Inhibition (%) EP-2 [1]: 47%
Inhibition (%) EP-1 [2]: 43%

O=C(O)CN(CCN(CC(=O)O)CC(=O)O)CC(=O)O [EDTA]
inhibition at 5000 µM [3]: 10%
inhibition at 5000 µM [4]: 5%

CC(C)C[C@H](NC(=O)[C@H]1O[C@@H]1C(=O)O)C(=O)NCCCCN=C(N)N [E-64]
inhibition at 200 µM [3, 8]: 0%
inhibition at 200 µM [4, 8]: 0%

Reference: patent US8013137B2, “Modified enteropeptidase protein” (National University Corporation Hokkaido University, priority 2006, dated 2011)
